Results on 15 molecules are retold here after US7951799B2, “Lactam compound, a method for producing the same, and a diabetic therapy by administering the same” (Ajinomoto Co., Inc., priority 2005, dated 2011).

Where two headings read alike, the source gives them in different places.

The test system of data set [1] is rat adipocytes. Nature of the data set: Evaluation of sugar transport activity (2-[14C(U)]-deoxy-D-glucose incorporation). It counts as cell-based. Conditions: for EC50 (concentration of test compound corresponding to 50% enhancement action of sugar transport): enhancement action of insulin (100 nM) taken as 100%, 30 min preculture at 37° C. How it is done: Three male Wistar rats (6 to 7 weeks old) were bled by decapitation, and then laparotomized to extract 3 g of paratesticular fat tissue. […] An amount of 8 mg of collagenase (Type I) was added to carry out digestion treatment for 35 minutes, and undigested fragments were eliminated with a nylon mesh to obtain approximately 3 ml of isolated adipocytes. Collagenase was eliminated by buffer exchange, then, 2% BSA/KRH solution was added for re-suspension to obtain 15 ml of adipocyte suspension. The evaluation of sugar transport activity of the compound of the present invention was carried out with the methods described in the literature (Annual Review of Biochemistry, Volume 55, Page 1059, 1986) as a reference. That is to say, the above adipocyte suspension was distributed into polystyrene test tube, 200 μl each, 100 μl of solution of test substance (10 mg/ml of dimethylsulfoxide solution diluted with KRH) was added, and cultured while shaking at 37° C. for 30 minutes.

The subject of data set [2] is C57BL/KsJ-db/dbJcl mice. Nature of the data set: Evaluation of hypoglycemic action in pathologic mouse. The conditions noted are these: 120 minutes after administration, fasted 20 hours. It counts as in vivo. The protocol:
(§1) C57BL/KsJ-db/dbJcl mice (8 to 9 weeks old) or GK/Jcl rats fasted for 20 hours were administered with the test compound by a single oral administration, blood was collected from the tail vein immediately before administration and 30, 60, 120 and 180 minutes after administration, and the blood glucose level was measured with Fuji DryChem5500 (glucose oxidase method). For the test animals, a group comprised 4 to 5 subjects, and the blood glucose level was determined as mean values. The test compound was administered by dissolving in an aqueous solution of 50% polyethyleneglycol 400, or 100% polyethyleneglycol 400.
(§2) The degrees of hypoglycemia calculated based on the blood glucose levels measured according to the methods described above are shown in Table 5 (mouse) and Table 6 (rat). The degree of hypoglycemia was calculated as the percentage of the difference between the blood glucose level at one time point 120 minutes after administration and blood glucose level immediately before administration, with respect to the blood glucose level immediately before administration.

Data set [3] deals with MDCK cells. Nature of the data set: Evaluation of membrane permeability using MDCK cells. The conditions noted are these: MDCK monolayer; mucous membrane side (pH 6.5) to basal membrane side (pH 7.4); 37° C.
Description: (§3) The compound of the present invention was evaluated for membrane permeability using MDCK cells, according to the method below.
(§4) An epithelial cell line derived from dog renal tubule, MDCK (Madin Darby Canine Kidney cell line), is cultured for 3 to 4 days in a flask containing 10% FBS-added D-MEM/F12 culture medium (Manufactured by Gibco) at 37° C. in a carbon dioxide incubator. The cells are detached from the flask with a Trypsin/EDTA solution (Manufactured by Gibco), and unicellularized by pipetting. The cells are suspended in the same medium as described above and placed in a transwell (mucous membrane-side well) of a Transwell plate (manufactured by COSTAR) at 2×10^5 cell/well in a volume of 0.1 ml. The transwell is transferred to the basal membrane-side well where 0.6 ml of the same culture medium has been placed, and the cells are cultured at 37° C. in a carbon dioxide incubator for 3 days. After the culture, the culture media in the mucous membrane-side well and the basal membrane-side well are exchanged for the same culture medium, incubated under the same condition for one day. Thus, satisfactory MDCK monolayer culture cells are obtained.
(§5) During in vitro permeation-absorption experiments, the culture media are eliminated from both wells, the mucous membrane-side well is washed with PBS buffer solution (pH 6.5), and the basal membrane-side well is washed with PBS buffer solution (pH 7.4). Next, 0.1 ml of PBS buffer solution (pH6.5) is added to the mucous membrane-side well, 0.6 ml of PBS buffer solution (pH 7.4) is added to the basal membrane-side well, and equilibration is carried out by incubating for 15 minutes in a 37° C. incubator.
(§6) The mucous membrane-side well is exchanged for 0.1 ml of a solution containing the test substance prepared with PBS buffer solution (pH6.5), and time point when the well is transferred to the basal membrane-side well substituted with 0.6 ml of PBS buffer solution (pH7.4) is taken as the permeation-absorption start time, and thereafter, sampling is performed from the basal membrane-side well over time. The amounts of test substance in the samples sampled in this way are measured by HPLC analysis, and the amount of the substance permeated and absorbed from the mucous membrane side to the basal membrane side according to the reaction time is determined to determine the permeation coefficient (cm/sec).
For data set [4], the system named is MDCK cells. Conditions: dog.
Description: as §3, §4, §5, §6
For data set [5], the system named is GK/Jcl rats. Nature of the data set: Evaluation of hypoglycemic action in pathologic rat. It counts as in vivo. Conditions: 120 minutes after administration, fasted 20 hours. How it is done: as §1, §2
Setting [6] is: 3 mg/kg single oral administration.
Setting [7] is: 10 mg/kg single oral administration.

Consider `O=C1NCC2=C1[C@@H](c1cccc3ccsc13)N(C(=O)CO)[C@@H]1CCCC[C@H]1N2` [Example 8], for which, in data set [1], the “EC50 (concentration of test compound corresponding to 50% enhancement action of sugar transport)” value is 0.61 µg/mL. Also, the values for the Degree of hypoglycemia in data set [2] (setting [6]) and in data set [2] (setting [7]) were 26% and 23%, respectively.
As for `C=Cc1ccccc1[C@@H]1C2=C(CNC2=O)N[C@@H]2CCCC[C@H]2N1C(=O)CO` [Example 19], the “EC50 (concentration of test compound corresponding to 50% enhancement action of sugar transport)” value in data set [1] stood at 0.45 µg/mL. The Permeation coefficient in data set [3] is 10 10^−7 cm/sec. In addition, the Degree of hypoglycemia is 31% in data set [2] (setting [6]) and 36% in data set [2] (setting [7]).
As to `O=C1NCC2=C1[C@@H](c1cccc3cccnc13)N(C(=O)CO)[C@@H]1CCCC[C@H]1N2` [Example 16], the “EC50 (concentration of test compound corresponding to 50% enhancement action of sugar transport)” value in data set [1] was found to be 1.36 µg/mL. Further, the results for the Degree of hypoglycemia in data set [2] (setting [6]) and in data set [2] (setting [7]) were 12% and 36%, respectively. The Permeation coefficient in data set [4] is on record as 9 10^−7 cm/sec.
Take `O=C1NCC2=C1[C@@H](c1cccc3ccnn13)N(C(=O)CO)[C@@H]1CCCC[C@H]1N2` [Example 14]: the “EC50 (concentration of test compound corresponding to 50% enhancement action of sugar transport)” value in data set [1] turned out to be 1.3 µg/mL. The same molecule came in with a Degree of hypoglycemia in data set [5] (setting [7]) of 36%.
For the molecule insulin, the “sugar transport enhancement action compared to non-insulin added control group” value in data set [1] (insulin 100 nM) is recorded as 3-9 times.
Take `O=C1NCC2=C1[C@@H](c1cccc3ccoc13)N(C(=O)CO)[C@@H]1CCCC[C@H]1N2` [Example 1]: the “EC50 (concentration of test compound corresponding to 50% enhancement action of sugar transport)” value in data set [1] was 0.65 µg/mL. Moreover, the Permeation coefficient in data set [3] is listed as 8 10^−7 cm/sec. The Degree of hypoglycemia in data set [2] (setting [6]) turned out to be 4%; in data set [2] (setting [7]), 51%.
Turning to `Cc1cc2cccc([C@@H]3C4=C(CNC4=O)N[C@@H]4CCCC[C@H]4N3C(=O)CO)c2o1` [Example 9], in data set [1], the “EC50 (concentration of test compound corresponding to 50% enhancement action of sugar transport)” value turned out to be 0.92 µg/mL. For the same molecule, in data set [3], the Permeation coefficient was 40 10^−7 cm/sec. Moreover, the Degree of hypoglycemia in data set [5] (setting [6]) amounted to 30%; in data set [5] (setting [7]), 37%.
Take `Cc1cc2cccc([C@@H]3C4=C(CNC4=O)N[C@@H]4CCCC[C@H]4N3C(=O)CO)c2[nH]1` [Example 11]: in data set [1], the “EC50 (concentration of test compound corresponding to 50% enhancement action of sugar transport)” value was 0.73 µg/mL.
For the molecule `COCC(=O)N1[C@@H]2CCCC[C@H]2NC2=C(C(=O)NC2)[C@H]1c1cccc2cc(C)[nH]c12` [Example 12], the “EC50 (concentration of test compound corresponding to 50% enhancement action of sugar transport)” value in data set [1] was determined as 0.63 µg/mL. The Permeation coefficient in data set [3] is given as 20 10^−7 cm/sec. The Degree of hypoglycemia in data set [5] (setting [7]) worked out at 34%.
On to `O=C1NCC2=C1[C@@H](c1cccc3ccoc13)N(C(=O)C(F)F)[C@@H]1CCCC[C@H]1N2` [Example 6], for which the “EC50 (concentration of test compound corresponding to 50% enhancement action of sugar transport)” value in data set [1] turned out to be 0.58 µg/mL. In addition, in data set [3], the Permeation coefficient is 8 10^−7 cm/sec.
`COCC(=O)N1[C@@H]2CCCC[C@H]2NC2=C(C(=O)NC2)[C@H]1c1cccc2cc[nH]c12` [Example 5]: the “EC50 (concentration of test compound corresponding to 50% enhancement action of sugar transport)” value in data set [1] came out at 0.26 µg/mL. Further, the Permeation coefficient in data set [3] is 20 10^−7 cm/sec. The Degree of hypoglycemia amounted to 28% in data set [2] (setting [6]) and 41% in data set [2] (setting [7]).
Turning to `O=C1NCC2=C1[C@@H](c1cccc3cccnc13)N(C(=O)C(F)F)[C@@H]1CCCC[C@H]1N2` [Example 17], the “EC50 (concentration of test compound corresponding to 50% enhancement action of sugar transport)” value in data set [1] came to 0.59 µg/mL. Moreover, the Degree of hypoglycemia in data set [5] (setting [7]) was 35%. In addition, the Permeation coefficient in data set [4] is recorded as 10 10^−7 cm/sec.
For `O=C1NCC2=C1[C@@H](c1cccc3c1OCC3)N(C(=O)CO)[C@@H]1CCCC[C@H]1N2` [Example 13], the “EC50 (concentration of test compound corresponding to 50% enhancement action of sugar transport)” value in data set [1] was 0.90 µg/mL.
For `CSc1ccsc1[C@@H]1C2=C(CNC2=O)N[C@@H]2CCCC[C@H]2N1C(=O)CO` [Example 18], the “EC50 (concentration of test compound corresponding to 50% enhancement action of sugar transport)” value in data set [1] worked out at 3.1 µg/mL. Moreover, the results for the Degree of hypoglycemia in data set [2] (setting [6]) and in data set [2] (setting [7]) were 21% and 41%, respectively.
Regarding `O=C1NCC2=C1[C@@H](c1cccc3ccoc13)N(C(=O)C(F)(F)F)[C@@H]1CCCC[C@H]1N2` [Example 7], the “EC50 (concentration of test compound corresponding to 50% enhancement action of sugar transport)” value in data set [1] amounted to 1.94 µg/mL.
